Results on 27 compounds are retold here after patent US5196427A, “3-aryl-4(3H) quinazolinone CCK antagonists and pharmaceutical formulations thereof” (Eli Lilly and Company, priority 1991, dated 1993).

The first experiment deals with T1, Brain CCK receptor (Mus musculus, UniProt P56481).
T1 construct: from tissue; host or cells: forebrain membranes of male CF-1 mice
T1 sequence (P56481 1-453): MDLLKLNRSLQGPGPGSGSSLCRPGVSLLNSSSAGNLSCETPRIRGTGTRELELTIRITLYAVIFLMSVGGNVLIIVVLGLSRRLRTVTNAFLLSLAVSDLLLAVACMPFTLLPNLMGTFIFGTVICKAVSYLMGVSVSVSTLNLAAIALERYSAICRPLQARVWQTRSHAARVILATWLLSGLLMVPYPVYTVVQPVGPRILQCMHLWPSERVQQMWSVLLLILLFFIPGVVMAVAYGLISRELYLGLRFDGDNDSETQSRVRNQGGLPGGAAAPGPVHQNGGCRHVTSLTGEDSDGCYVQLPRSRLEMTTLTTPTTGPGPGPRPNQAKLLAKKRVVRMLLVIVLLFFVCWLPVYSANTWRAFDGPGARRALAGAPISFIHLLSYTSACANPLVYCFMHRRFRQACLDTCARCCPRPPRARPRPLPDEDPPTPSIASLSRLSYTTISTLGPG
Kind of experiment: Brain CCK receptor binding (mouse brain membranes, 125I-CCK-8 sulfate). Particulars: mouse brain membranes; 1 μM. How it is done:
Brain CCK receptor binding was performed using mouse brain membranes according to the method of Chang and Lotti (Proc. Natl. Acad. Sci. 83: 4923-4926, 1986). Male CF-1 mice, 23-25 g were sacrificed by cervical dislocation, the forebrain removed and placed in ice cold 50 mM Tris buffer, pH 7.4. The tissue was homogenized in 100 volumes of the Tris buffer with a Brinkman Polytron or Tekmar Tissumizer and then centrifuged at 40,000 g for 10 min. Pellets were resuspended in Tris buffer, centrifuged as above and then resuspended in 100 volumes of assay buffer, pH 6.5 (20 mM N-2-hydroxyethyl-piperazine-N'-2-ethane sulfonic acid (HEPES), 1 mM ethylene glycol bis(2-aminoethyl ether-N,N,N',N'-tetraaceticacid) (EGTA), 5 mM MgCl2, 130 mM NaCl, and 0.25 mg/ml bacitracin). The binding assay consisted of 50 μL of compound (or buffer for total binding), 50 μL of ^125 I-CCK-8 sulfate (20 pM) (Amersham IM-159), 200 μL of assay buffer and 200 μL of homogenate (80-120 μg protein). The samples were incubated at room temperature (25°) for 2 hours, and they were then filtered through GF/B glass fiber filters (soaked in wash buffer for 2 hours before use) using a 48 well Brandel cell harvester designed for receptor binding. The filters were washed twice with 3 ml of 50 mM Tris buffer, pH 7.4, containing 0.01% BSA and then counted for radioactivity in plastic tubes with a Micromedic 10/600 automatic gamma counter.
Compounds were dissolved in dimethyl sulfoxide (DMSO) at a concentration of 10 mM and then further diluted with assay buffer. […] IC-50 values of displacement curves were determined using 7 concentrations of compound and were calculated using the ALLFIT computer program of DeLean, Munson and Rodbard (Am. J. Physiol. 235: E97-E102, 1978). Non-specific binding was determined as the displacement of the radioligand by 100 nM CCK-8 sulfate.
In the case of `COc1cccc(-n2c(CC(c3ccccc3)c3c[nH]c4ccccc34)nc3ccccc3c2=O)c1` (stereo not drawn) [Example 5, 2-[2-Phenyl-2-(3-indolyl)ethyl]-3-(3-methoxyphenyl)-4-(3H)quinazolinone], testing at 1 µM gave an inhibition of 57%.

Staying with this experiment, now noted: mouse brain membranes; 10 μM; read-out: Brain % inhibition in binding assay.
With `O=c1c2ccccc2nc(CCc2c[nH]c3ccccc23)n1-c1ccccc1C(F)(F)F` [Example 11], the inhibition (usually the change of the read-out against control, counted positive when it falls) at 10 µM came to 35%.

Still in this experiment, the particulars now being: mouse brain membranes; Mean ± SEM, n = 3; values without SEM n = 1; read-out: Brain IC50.
Take `COc1ccc2[nH]cc(CCc3nc4ccccc4c(=O)n3-c3ccccc3)c2c1` [Example 3, 2-[2-(5-methoxyindol-3-yl)-ethyl]-3-phenyl-4-(3H)quinazolinone]: the IC50 (in general, the point on the concentration scale where inhibition reaches its midpoint) is 410 nM. Same read-out and setting: then `O=c1c2ccccc2nc(CCc2c[nH]c3cc(Cl)ccc23)n1-c1ccccc1` [Example 7], with 1100 nM; and `COc1cccc(-n2c(CCc3c[nH]c4ccc(F)cc34)nc3ccccc3c2=O)c1` [Example 18], with 110 ± 10 nM; and `COc1cccc(-n2c(CCc3c[nH]c4ccc(Cl)cc34)nc3ccccc3c2=O)c1` [Example 19], with 47 ± 3 nM. Still for that read-out and setting: then `COc1cccc(-n2c(CCc3c[nH]c4ccc(C)cc34)nc3ccccc3c2=O)c1` [Example 21], with 55 ± 3 nM. In the case of `COc1cccc(-n2c(CCc3c[nH]c4ccc(OC)cc34)nc3ccccc3c2=O)c1` [Example 22], the IC50 came to 67 ± 5 nM. Same read-out and setting: for `CCOc1cccc(-n2c(CCc3c[nH]c4ccc(OC)cc34)nc3ccccc3c2=O)c1` [Example 24] the value was 33 nM; for `CC(C)Oc1cccc(-n2c(CCc3c[nH]c4ccccc34)nc3ccccc3c2=O)c1` [Example 25], 26 ± 0.3 nM. Same read-out and setting: for `CC(C)Oc1cccc(-n2c(CCc3c[nH]c4ccc(Cl)cc34)nc3ccccc3c2=O)c1` [Example 26] the value was 19 ± 5 nM; for `COc1ccc2[nH]cc(CCc3nc4ccccc4c(=O)n3-c3cccc(OC(C)C)c3)c2c1` [Example 27], 19 nM. Still for that read-out and setting: then `CSc1cccc(-n2c(CCc3c[nH]c4ccc(Br)cc34)nc3ccccc3c2=O)c1` [Example 32], with 46 ± 8 nM. For `COc1ccc2[nH]cc(CCc3nc4ccccc4c(=O)n3-c3cccc(SC)c3)c2c1` [Example 33], the IC50 was found to be 34 nM. For the compound `O=c1c2ccccc2nc(CCc2c[nH]c3ccc(Br)cc23)n1-c1cccc(C(F)(F)F)c1` [Example 34], the half-maximal inhibitory concentration (IC50) amounted to 230 ± 30 nM. Same read-out and setting: then `O=c1c2ccccc2nc(CCc2c[nH]c3ccc(Cl)cc23)n1-c1cccc(C(F)(F)F)c1` [Example 35], with 230 nM; and `Cc1ccc2[nH]cc(CCc3nc4ccccc4c(=O)n3-c3cccc(C(F)(F)F)c3)c2c1` [Example 36], with 190 nM. As to `COc1ccc2[nH]cc(CCc3nc4ccccc4c(=O)n3-c3cccc(C(F)(F)F)c3)c2c1` [Example 37], the 50% inhibitory concentration (IC50) worked out at 130 nM.

In the case of `CN(C)c1cccc(-n2c(CCc3c[nH]c4ccc(Br)cc34)nc3ccccc3c2=O)c1` [Example 38], the 50% inhibitory concentration (IC50) was found to be 16 ± 1 nM. As for `CN(C)c1cccc(-n2c(CCc3c[nH]c4ccc(Cl)cc34)nc3ccccc3c2=O)c1` [Example 39], the IC50 worked out at 13 nM. Still for that read-out and setting: for `O=c1c2ccccc2nc(CCc2c[nH]c3ccc(Br)cc23)n1-c1cccc(N2CCCC2)c1` [Example 40] the value was 22 ± 3 nM; for `COc1cc(OC)cc(-n2c(CCc3c[nH]c4ccccc34)nc3ccccc3c2=O)c1` [Example 41], 1800 nM. As for `O=c1c2ccccc2nc(CCc2c[nH]c3ccccc23)n1-c1ccc2c(c1)OCO2` [Example 42], the half-inhibitory concentration (IC50) was 190 ± 40 nM.

The same experiment, now with this note: read-out: Brain % inhibition in binding assay, mouse brain membranes; 10 μM.
On to `O=c1c2ccccc2nc(Cc2c[nH]c3ccccc23)n1-c1ccccc1` [Example 2, 2-(3-Indolylmethyl)-3-phenyl-4-(3H)quinazolinone], for which the inhibition at 10 µM was found to be 36%. Regarding `O=c1c2ccccc2nc(CCc2c[nH]c3ccccc23)n1-c1ccccc1F` [Example 8], the inhibition at 10 µM turned out to be 75%. Still for that read-out and setting: then `O=c1c2ccccc2nc(CCc2c[nH]c3ccccc23)n1-c1ccccc1Cl` [Example 9], with 44%; and `COc1ccccc1-n1c(CCc2c[nH]c3ccccc23)nc2ccccc2c1=O` [Example 10], with 74%.
